Experimental findings from paper PMC7732128, “Regulation of gene transcription by thyroid hormone receptor β agonists in clinical development for the treatment of non-alcoholic steatohepatitis (NASH)” (PLoS ONE, 2020) are described below.

Experiment [1] has as its system THR (THRSP RNA in PHH). Kind of experiment: Differential gene expression assay in primary human hepatocytes (PHH). The conditions noted are these: Hepatocyte, RT-qPCR, 24 hrs treatment, read-out: PHH EC50 Mean ± SEM. The class given is cell-based. A general note: Quantitative PCR measures a nucleic acid by following its amplification.
For experiment [2], the system named is THR (ANGPTL4, CPT1A, DIO1 RNA in Huh-7 cells). Briefly: Differential gene expression assay in Huh-7 cells. The format is cell-based, human. The following applies: for fold less potent than T3: CPT1A transcription in Huh-7; for EC50: Homo sapiens. The procedure:
Hepatoma-derived Huh-7 cells (JCRB Cell Bank, JCRB0403) were obtained directly from the repository, which performed cell line authentication via isozyme analysis and comprehensively tested for microbial contamination, viral contamination, and cross culture contamination. Cells were routinely cultured in DMEM (Corning, 10-013-CM) supplemented with 10% FBS and 1% P/S at 37°C and 5% CO2 until 80–90% confluency. Cells were then detached with 0.05% trypsin (Corning, 25-052-CV), resuspended in TH-free medium (DMEM supplemented with 10% TH-depleted FBS and 1% P/S), and seeded into collagen-coated, 96-well microplates (Corning, 354407) at 5.0 x 10^4 cells/well. After 24 hrs, the culture medium was replaced with treatment media. Cells were treated for 24 hrs. TH-depletion of the FBS via resin treatment was accomplished as previously described. All treatment media were made by mixing test compounds, serially diluted in DMSO, with TH-free medium (0.1% final DMSO concentration).
After 24 hrs in treatment media, both Huh-7 cells and PHH were processed with the TaqMan Fast Advanced Cells-to-Ct Kit (Invitrogen, A35378), according to the manufacturer’s protocol. Briefly, the treatment media was removed and the cells were washed with 50 μL cold 1X phosphate-buffered saline (Corning, 21-040-CM). Fifty μL lysis buffer containing DNase I was added to each well and the plate was incubated on a rotor at RT for 5 mins. Five μL stop solution was then added to each well and after another 2 mins incubation on a rotor at RT, the cell lysates were used for reverse transcription. The resulting cDNA was diluted 1:2 with nuclease-free, distilled water (Invitrogen, 10977015). Gene expression was measured using TaqMan Fast Advanced Master Mix (Applied Biosystems, 4444964) and the following TaqMan Gene Expression assays (Applied Biosystems, 4331182): 18S (Hs99999901_s1), ACTB (Hs01060665_g1), ANGPTL4 (Hs01101123_g1), CPT1A (Hs00912671_m1), DIO1 (Hs00174944_m1), TFG (Hs02832013_g1), THRA (Hs00268470_m1), and THRB (Hs00230861_m1). ACTB and TFG served as control housekeeping genes for Huh-7 assays and 18S and ACTB for PHH assays. Ten μL reactions were run on the qTOWER³ 84 (Analytik Jena). Relative quantification (RQ) of gene expression was calculated via the 2^−ΔΔCt method and dose-response curves were fitted by non-linear regression with variable slope. Statistical analysis was performed in GraphPad Prism 8.
We aimed to develop an in vitro, cell-based assay that is not only amenable to high throughput screening of compounds, but that can also more reliably recapitulate in vivo processes. Because activated THR may function as a transcription factor, we compared the action of THR agonists in a human hepatocyte-derived cell line and in primary human hepatocytes (PHH) by quantifying transcriptional changes resulting from compound treatment (Fig 2A). Cells were cultured in TH-depleted media for 24 hrs and then treated with compounds for 24 hrs. The RNA levels of THR target genes were then measured via RT-qPCR.

Where [3] appears, read: Huh-7, CPT1A RNA, RT-qPCR, 24 hrs treatment, read-out: Huh-7 EC50 Mean ± SEM.

Like-named read-outs stand apart in the source and are kept apart here.

The EC50 is the concentration giving half of the maximal effect.

For `Cc1cc(OCP(=O)(O)O)cc(C)c1Cc1ccc(O)c(C(C)C)c1` [VK2809A], the values for the concentration giving a half-maximal response (EC50) in experiment [1] and in experiment [2] (setting [3]) were 14.8 ± 10.7 nM and 8.3 ± 2.2 nM, respectively. Further, in experiment [2], the “fold less potent than T3” value was “approximately 30 fold”.

In the case of `Cc1cc(OCP2(=O)OCC[C@@H](c3cccc(Cl)c3)O2)cc(C)c1Cc1ccc(O)c(C(C)C)c1` (stereo partly drawn) [VK2809], the EC50 in experiment [1] turned out to be 18.7 ± 8.9 nM; in experiment [2] (setting [3]), 589 ± 120 nM. The “fold less potent than T3” value in experiment [2] is on record as ~2,000 fold. Moreover, in experiment [2] (Huh-7 assay), the “times weaker than VK2809A” value worked out at 71 times.

For the compound `CC(C)c1cc(Oc2c(Cl)cc(-n3nc(C#N)c(=O)[nH]c3=O)cc2Cl)n[nH]c1=O` [MGL-3196, 2-[3,5-dichloro-4-(5-isopropyl-6-oxo-1,6-dihydropyridazin-3-yloxy)phenyl]-3,5-dioxo-2,3,4,5-tetrahydro[1,2,4]triazine-6-carbonitrile], the EC50 amounted to […] in experiment [1]; […] in experiment [2] (setting [3]); […] in experiment [2] (Huh-7, 24 hrs, n = 2 (Fig 2C), read-out: mean EC50, ANGPTL4); […] in experiment [2] (Huh-7, 24 hrs, n = 2 (Fig 2C), read-out: mean EC50, CPT1A); […] in experiment [2] (Huh-7, 24 hrs, n = 2 (Fig 2C), read-out: mean EC50, DIO1).
